# Where a name gives a salt, the structure may show the parent alone.
# Assay: in vitro
# Settings: human, hek293t cells
structure (smiles),measurement,value
"C=CC(=O)N1CCC(C(=O)NC2CCc3ncnn3C2)CC1 (stereo not drawn) [2-P20, 1-(prop-2-enoyl)-N-{5H,6H,7H,8H-[1,2,4]triazolo[1,5-a]pyridin-6-yl}piperidine-4-carboxamide]","viability at 48 h, 25 µM",98%
"COc1ccc(S(=O)(=O)N2CCCCC2)cc1NC(=O)CCl [6-G13, 2-chloro-N-[2-methoxy-5-(piperidine-1-sulfonyl)phenyl]acetamide]","viability at 48 h, 25 µM",1.34%
"Cc1ccccc1NC(=O)C(C#N)=Cc1cccnc1 [8-D10, 2-cyano-N-(2-methylphenyl)-3-(pyridin-3-yl)prop-2-enamide]","viability at 48 h, 25 µM",95.5%
"CS(=O)(=O)N1CCC(N(CC(F)F)C(=O)CCl)CC1 [5-O12, 2-chloro-N-(2,2-difluoroethyl)-N-(1-methanesulfonylpiperidin-4-yl)acetamide]","viability at 48 h, 25 µM",1.77%
"Cc1ncsc1C=C(C#N)C(=O)Nc1ccc(C(=O)N(C)C)cc1 [9-J16, 4-[2-cyano-3-(4-methyl-1,3-thiazol-5-yl)prop-2-enamido]-N,N-dimethylbenzamide]","viability at 48 h, 25 µM",118%
"C=CC(=O)N(C)CC(=O)NC1CCC(N2CCCCC2=O)CC1 (stereo not drawn) [3-A06, N-methyl-N-({[4-(2-oxopiperidin-1-yl)cyclohexyl]carbamoyl}methyl)prop-2-enamide]","viability at 48 h, 25 µM",62.1%
"Cc1c(CN(CC2CC=CCC2)C(=O)CCl)cnn1C (stereo not drawn) [5-C14, 2-chloro-N-[(cyclohex-3-en-1-yl)methyl]-N-[(1,5-dimethyl-1H-pyrazol-4-yl)methyl]acetamide]","viability at 48 h, 25 µM",0.469%
"C=CC(=O)NCCNS(=O)(=O)c1cc(C)sc1C [3-C21, N-[2-(2,5-dimethylthiophene-3-sulfonamido)ethyl]prop-2-enamide]","viability at 48 h, 25 µM",34.6%
"C=CC(=O)NC[C@@H]1C[C@H](F)CN1Cc1ccnn1C [2-E05, N-{[(2S,4S)-4-fluoro-1-[(1-methyl-1H-pyrazol-5-yl)methyl]pyrrolidin-2-yl]methyl}prop-2-enamide]","viability at 48 h, 25 µM",78.5%
"CC(Cl)C(=O)NC1CCCN(c2ncccn2)C1 (stereo not drawn) [7-C21, 2-chloro-N-[1-(pyrimidin-2-yl)piperidin-3-yl]propanamide]","viability at 48 h, 25 µM",93.1%
"O=C(CCl)NCc1cc([N+](=O)[O-])ccc1O [4-A05, 2-chloro-N-[(2-hydroxy-5-nitrophenyl)methyl]acetamide]","viability at 48 h, 25 µM",1.29%
"C=CC(=O)NCC1(c2ccccc2)CC1(F)F (stereo not drawn) [2-O20, N-[(2,2-difluoro-1-phenylcyclopropyl)methyl]prop-2-enamide]","viability at 48 h, 25 µM",113%
"C=CC(=O)N(C)CC(=O)N1CCn2cc(C(F)(F)F)nc2C1 [3-A04, N-methyl-N-{2-oxo-2-[2-(trifluoromethyl)-5H,6H,7H,8H-imidazo[1,2-a]pyrazin-7-yl]ethyl}prop-2-enamide]","viability at 48 h, 25 µM",60.6%
"Cc1c(NC(=O)CCl)c(=O)n(-c2ccccc2)n1C [5-G17, 2-chloro-N-(1,5-dimethyl-3-oxo-2-phenyl-2,3-dihydro-1H-pyrazol-4-yl)acetamide]","viability at 48 h, 25 µM",42.7%
"Cc1ccc(Cc2cnc(NC(=O)CCl)s2)cc1 [5-K03, 2-chloro-N-{5-[(4-methylphenyl)methyl]-1,3-thiazol-2-yl}acetamide]","viability at 48 h, 25 µM",-0.392%
"CC(C)(C)c1ccc(CC(=O)CCl)cc1 [10-G19, 1-(4-tert-butylphenyl)-3-chloropropan-2-one]","viability at 48 h, 25 µM",1.53%
"CN(C)c1ccc(C=C(C#N)C(=O)Nc2nccs2)cc1 [8-E06, 2-cyano-3-[4-(dimethylamino)phenyl]-N-(1,3-thiazol-2-yl)prop-2-enamide]","viability at 48 h, 25 µM",75.1%
"C=CC(=O)NC1(Cc2nnc3ccccn23)CCCCC1 [2-L03, N-[1-({[1,2,4]triazolo[4,3-a]pyridin-3-yl}methyl)cyclohexyl]prop-2-enamide]","viability at 48 h, 25 µM",76.2%
"C=CC(=O)Nc1ncc(-c2cccc(C)c2)s1 [1-P14, N-[5-(3-methylphenyl)-1,3-thiazol-2-yl]prop-2-enamide]","viability at 48 h, 25 µM",63.6%
"N#CC(=Cc1cccc(Oc2ccccc2)c1)C(=O)N1CCCC1 [9-F06, 3-(3-phenoxyphenyl)-2-(pyrrolidine-1-carbonyl)prop-2-enenitrile]","viability at 48 h, 25 µM",46.3%
"N#CC(C(=O)N1CCCCC1)=C1N=C(N)c2ccccc21 [9-A21, 2-(3-amino-1H-isoindol-1-ylidene)-3-oxo-3-(piperidin-1-yl)propanenitrile]","viability at 48 h, 25 µM",102%
"COc1cc(C=C(C#N)C(=O)NC(C)C)sn1 [9-N12, 2-cyano-3-(3-methoxy-1,2-thiazol-5-yl)-N-(propan-2-yl)prop-2-enamide]","viability at 48 h, 25 µM",115%
"C=CC(=O)NC[C@@H]1C[C@H]1C1CCCCC1 [1-O19, N-{[(1R,2S)-2-cyclohexylcyclopropyl]methyl}prop-2-enamide]","viability at 48 h, 25 µM",106%
"Cc1nn(C)c(C)c1C=C(C#N)C(=O)Nc1ccccc1Cl [9-F11, N-(2-chlorophenyl)-2-cyano-3-(1,3,5-trimethyl-1H-pyrazol-4-yl)prop-2-enamide]","viability at 48 h, 25 µM",110%
"CC(Cl)C(=O)N(Cc1ccsc1)C1CC1 (stereo not drawn) [7-G11, 2-chloro-N-cyclopropyl-N-[(thiophen-3-yl)methyl]propanamide]","viability at 48 h, 25 µM",86.9%
"N#CC(=Cc1ccc(N2CCOCC2)cc1)C(=O)NCC1CCCO1 (stereo not drawn) [9-O10, 2-cyano-3-[4-(morpholin-4-yl)phenyl]-N-[(oxolan-2-yl)methyl]prop-2-enamide]","viability at 48 h, 25 µM",120%
"C=CC(=O)N(Cc1cnn(C(C)C)c1)c1ccc2nc(C)oc2c1 [2-C13, N-(2-methyl-1,3-benzoxazol-6-yl)-N-{[1-(propan-2-yl)-1H-pyrazol-4-yl]methyl}prop-2-enamide]","viability at 48 h, 25 µM",185%
"Cc1c(C=C(C#N)C(=O)Nc2nccs2)cc(C#N)n1C [8-B18, 2-cyano-3-(5-cyano-1,2-dimethyl-1H-pyrrol-3-yl)-N-(1,3-thiazol-2-yl)prop-2-enamide]","viability at 48 h, 25 µM",94.1%
"CC(=O)c1ccccc1NC(=O)C(C)Cl (stereo not drawn) [5-O19, N-(2-acetylphenyl)-2-chloropropanamide]","viability at 48 h, 25 µM",90.1%
"CC(Cl)C(=O)Nc1ccc(S(=O)(=O)N2CCCCC2)cc1 (stereo not drawn) [4-A12, 2-chloro-N-[4-(piperidine-1-sulfonyl)phenyl]propanamide]","viability at 48 h, 25 µM",64.8%
"N#CC(=Cc1cccc(Cl)c1Cl)C(=O)NCc1ccco1 [8-P04, 2-cyano-3-(2,3-dichlorophenyl)-N-[(furan-2-yl)methyl]prop-2-enamide]","viability at 48 h, 25 µM",52.4%
"C=CC(=O)NCC(C)c1ncc(C)s1 (stereo not drawn) [1-P10, N-[2-(5-methyl-1,3-thiazol-2-yl)propyl]prop-2-enamide]","viability at 48 h, 25 µM",43.9%
"O=C(CCl)NC1CCN(Cc2ccccc2)CC1 [5-E19, N-(1-benzylpiperidin-4-yl)-2-chloroacetamide hydrochloride]","viability at 48 h, 25 µM",1.13%
"COc1ccccc1NC(=O)C(C#N)=Cc1ccccc1F [8-E11, 2-cyano-3-(2-fluorophenyl)-N-(2-methoxyphenyl)prop-2-enamide]","viability at 48 h, 25 µM",67.4%
"C=CC(=O)NCc1ccc(N2CCN(C)CC2)cc1 [3-I20, N-{[4-(4-methylpiperazin-1-yl)phenyl]methyl}prop-2-enamide]","viability at 48 h, 25 µM",112%
"C=CC(=O)NC1CCC(c2nc(-c3ccccc3)n[nH]2)CC1 (stereo not drawn) [1-P05, N-[4-(3-phenyl-1H-1,2,4-triazol-5-yl)cyclohexyl]prop-2-enamide]","viability at 48 h, 25 µM",104%
"Cc1cccc(C)c1NC(=O)CNC(=O)C(C)Cl (stereo not drawn) [6-F10, 2-chloro-N-{[(2,6-dimethylphenyl)carbamoyl]methyl}propanamide]","viability at 48 h, 25 µM",106%
"CC(Cl)C(=O)NC1(c2noc(C(F)F)n2)CCC1 (stereo not drawn) [6-B15, 2-chloro-N-{1-[5-(difluoromethyl)-1,2,4-oxadiazol-3-yl]cyclobutyl}propanamide]","viability at 48 h, 25 µM",91.8%
"C#CCOc1ccccc1C=C(C#N)C(=O)Nc1ccccc1F [9-C10, 2-cyano-N-(2-fluorophenyl)-3-[2-(prop-2-yn-1-yloxy)phenyl]prop-2-enamide]","viability at 48 h, 25 µM",80.4%
"C=CC(=O)Nc1ccc(-n2nc(C)[nH]c2=O)cc1 [2-E16, N-[4-(3-methyl-5-oxo-4,5-dihydro-1H-1,2,4-triazol-1-yl)phenyl]prop-2-enamide]","viability at 48 h, 25 µM",101%
"CC(Cl)C(=O)NCc1ccn(CC(F)F)n1 (stereo not drawn) [7-I17, 2-chloro-N-{[1-(2,2-difluoroethyl)-1H-pyrazol-3-yl]methyl}propanamide]","viability at 48 h, 25 µM",88.7%
"CCNC(=O)C(C#N)=Cc1ccc(O)c(OCC)c1 [8-O09, 2-cyano-3-(3-ethoxy-4-hydroxyphenyl)-N-ethylprop-2-enamide]","viability at 48 h, 25 µM",98.9%
"CC(Cl)C(=O)NC1CCCc2ccccc21 (stereo not drawn) [5-M19, 2-chloro-N-(1,2,3,4-tetrahydronaphthalen-1-yl)propanamide]","viability at 48 h, 25 µM",74.2%
"C=CC(=O)NC1(c2ccc(C(F)(F)F)cc2)CCCC1 [2-E04, N-{1-[4-(trifluoromethyl)phenyl]cyclopentyl}prop-2-enamide]","viability at 48 h, 25 µM",82.6%
"Cc1csc(C2(NC(=O)CCl)CCOCC2)n1 [7-J03, 2-chloro-N-[4-(4-methyl-1,3-thiazol-2-yl)oxan-4-yl]acetamide]","viability at 48 h, 25 µM",0.732%
"COC1CCN(c2ccc(F)cc2CN(C)C(=O)C(C)Cl)CC1 (stereo not drawn) [7-I11, 2-chloro-N-{[5-fluoro-2-(4-methoxypiperidin-1-yl)phenyl]methyl}-N-methylpropanamide]","viability at 48 h, 25 µM",94.9%
"C=CC(=O)N1CCOC2(CCS(=O)(=O)C2)C1 (stereo not drawn) [2-C06, 9-(prop-2-enoyl)-6-oxa-2lambda6-thia-9-azaspiro[4.5]decane-2,2-dione]","viability at 48 h, 25 µM",101%
"COCCn1c(C)cc(C(=O)CCl)c1C [10-D13, 2-chloro-1-[1-(2-methoxyethyl)-2,5-dimethyl-1H-pyrrol-3-yl]ethan-1-one]","viability at 48 h, 25 µM",110%
"C=CC(=O)NCc1ncnn1-c1ccccc1 [3-H11, N-[(1-phenyl-1H-1,2,4-triazol-5-yl)methyl]prop-2-enamide]","viability at 48 h, 25 µM",63.1%
"N#CC(=Cc1ccc(O)c([N+](=O)[O-])c1)C(=O)Nc1ccccc1C(=O)O [9-G10, 2-[2-cyano-3-(4-hydroxy-3-nitrophenyl)prop-2-enamido]benzoic acid]","viability at 48 h, 25 µM",118%
"C=CC(=O)Nc1ccccc1CCSC [1-A19, N-{2-[2-(methylsulfanyl)ethyl]phenyl}prop-2-enamide]","viability at 48 h, 25 µM",93.5%

# From publication PMC11995724, “Antibiotic target discovery by integrated phenotypic and activity-based profiling of electrophilic fragments” (Cell chemical biology, 2025)
